Here are results for three compounds from patent US20260022142A1, “MACROCYCLIC IMMUNOMODULATORS” (Bristol-Myers Squibb Company, priority 2022, published 2026).

Each structure is given as a SMILES string. Bridge positions count the residues as written; N and C are the ends. Square brackets hold non-standard residues; d marks the D form. Peptide text beside a SMILES is read from it. * marks the point of attachment. Ala(indol-2-yl) = N[C@@H](Cc1cc2ccccc2[nH]1)C(=O)O; Tyr(3,5-F2) = N[C@@H](Cc1cc(F)c(O)c(F)c1)C(=O)O; Bip = N[C@@H](Cc1ccc(-c2ccccc2)cc1)C(=O)O; Phe(3-Me) = Cc1cccc(C[C@H](N)C(=O)O)c1; Val(3-OH) = CC(C)(O)[C@H](N)C(=O)O; hArg = N=C(N)NCCCC[C@H](N)C(=O)O; 4Pal = N[C@@H](Cc1ccncc1)C(=O)O; Cha = N[C@@H](CC1CCCCC1)C(=O)O; dNle = CCCC[C@@H](N)C(=O)O; Carboxymethyl = O=C(O)C*; Orn = NCCC[C@H](N)C(=O)O; Aun = NCCCCCCCCCCC(=O)O; Dab = NCC[C@H](N)C(=O)O; Dap = NC[C@H](N)C(=O)O; AEEA = NCCOCCOCC(=O)O

The target of this assay is T1, PD-1/PD-L1 interaction (PE-labeled human PD-L1-Ig binding to Jurkat cell line over-expressing human PD-1) (Homo sapiens, UniProt Q15116).
T1 construct: expressed in transfected cells; host or cells: Jurkat
T1 sequence (Q15116 25-288): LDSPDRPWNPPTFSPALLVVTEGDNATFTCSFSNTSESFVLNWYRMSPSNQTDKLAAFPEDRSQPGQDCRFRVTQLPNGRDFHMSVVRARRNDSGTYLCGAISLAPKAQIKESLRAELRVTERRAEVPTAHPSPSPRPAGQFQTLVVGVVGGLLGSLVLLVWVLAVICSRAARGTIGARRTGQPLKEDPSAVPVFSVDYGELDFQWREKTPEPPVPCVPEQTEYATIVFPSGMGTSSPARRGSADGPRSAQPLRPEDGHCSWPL
The experiment in a line: Jurkat-PD-1 Cell Binding High-Content Screening Assay (CBA). The class given is cell-based. To be noted: Jurkat cell line over-expressing human PD-1; PE-labeled PD-L1-Ig 20 nM final; read-out: Jurkat hPD1-PDL1 IC50. The method in brief: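 First, compound is added to PD-1-expressing Jurkat cells in serum-containing DMEM and left 2 h at 37° C. Next, PE-conjugated PD-L1-Ig is introduced at 20 nM final concentration for 1 hour. Finally, cells are fixed in 4% paraformaldehyde with Hoechst 33342, washed and imaged.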
For the compound `CCCC[C@H]1NC(=O)[C@H](CCCN)NC(=O)[C@H](C(C)C)NC(=O)[C@H](Cc2ccc(-c3ccccc3)cc2)NC(=O)[C@H](C(C)C)NC(=O)[C@H](Cc2cc3ccccc3[nH]2)NC(=O)[C@H](CC(=O)O)NC(=O)[C@H](Cc2ccc(OCC(=O)O)cc2)NC(=O)[C@H](CN)NC(=O)CSC[C@@H](C(=O)N[C@@H](CCN)C(=O)NCCOCCOCC(=O)NCCCCCCCCCCC(=O)O)NC(=O)[C@H](CCCCN)NC(=O)[C@H](C(C)C)NC(=O)[C@H](CC2CCCCC2)NC(=O)[C@H](CCN)NC1=O` [Compound 2678] ({CH2CO}-[Dap]Y(Carboxymethyl)D[Ala(indol-2-yl)]V[Bip]V[Orn][dNle][Dab][Cha]VKC[Dab][AEEA][Aun]-OH; thioether N-14), the IC50 was 15.2 nM.

On to `Cc1cccc(C[C@@H]2NC(=O)[C@H](CC(=O)O)NC(=O)[C@H](Cc3ccc(OCC(=O)O)cc3)NC(=O)[C@H](CCCCNC(=N)N)NC(=O)CSC[C@@H](C(=O)N[C@@H](CCN)C(=O)NCCOCCOCC(=O)NCCCCCCCCCCC(=O)O)NC(=O)[C@H](CCCN)NC(=O)[C@H](C(C)C)NC(=O)[C@H](CC3CCCCC3)NC(=O)[C@H](CCN)NC(=O)[C@@H](CC(C)C)NC(=O)[C@H](CCN)NC(=O)[C@H](C(C)C)NC(=O)[C@H](Cc3ccc(-c4ccccc4)cc3)NC(=O)[C@H](C(C)C)NC2=O)c1` [Compound 3252] ({CH2CO}-[hArg]Y(Carboxymethyl)D[Phe(3-Me)]V[Bip]V[Dab][dL][Dab][Cha]V[Orn]C[Dab][AEEA][Aun]-OH; thioether N-14), for which the IC50 is 7.4 nM. For the compound `Cc1cccc(C[C@@H]2NC(=O)[C@H](CC(=O)O)NC(=O)[C@H](Cc3ccc(OCC(=O)O)cc3)NC(=O)[C@H](Cc3ccncc3)NC(=O)CSC[C@@H](C(=O)N[C@@H](CCN)C(=O)NCCCCCCCCCCC(=O)O)NC(=O)[C@H](CO)NC(=O)[C@H](C(C)(C)O)NC(=O)[C@H](CC3CCCCC3)NC(=O)[C@H](CCN)NC(=O)[C@@H](CC(C)C)NC(=O)[C@H](CCCN)NC(=O)[C@H](Cc3ccc(OCC(=O)O)cc3)NC(=O)[C@H](Cc3ccc(-c4ccccc4)cc3)NC(=O)[C@H](Cc3cc(F)c(O)c(F)c3)NC2=O)c1` [Compound 2185] ({CH2CO}-[4Pal]Y(Carboxymethyl)D[Phe(3-Me)][Tyr(3,5-F2)][Bip]Y(Carboxymethyl)[Orn][dL][Dab][Cha][Val(3-OH)]SC[Dab][Aun]-OH; thioether N-14), the IC50 turned out to be 9.6 nM.

By IC50 is commonly meant the concentration that inhibits the measured activity by half.
